# According to ChEMBL document CHEMBL1275354, “Anticonvulsant activity of 2,4(1H)-diarylimidazoles in mice and rats acute seizure models” (Bioorg Med Chem, 2010):
# Active and inactive are the calls of the source. The rule behind the calls is not given here.
# Key:
# Mus musculus [1] = experiment: Anticonvulsant activity against subcutaneous metrazole-induced seizures in ip dosed albino CF1 mouse assessed as minimum effective dose after 4 hrs; type: functional; conditions: albino CF1, 4 h, read-out: MED
# Mus musculus [2] = experiment: Neurotoxicity in ip dosed albino CF1 mouse assessed as minimum dose required to cause toxicity after 0.5 hrs by rotarod test; type: organism-based; conditions: in vivo
# Mus musculus [3] = experiment: Anticonvulsant activity against maximal electroshock-induced seizures in ip dosed albino CF1 mouse assessed as minimum effective dose after 0.5 hrs; type: functional; conditions: read-out: MED
# Mus musculus [4] = experiment: Anticonvulsant activity in albino CF1 mouse assessed as protection against maximal electroshock-induced seizures at 30 mg/kg, ip after 4 hrs; type: functional, organism-based; design: dose 30 mg/kg
# Mus musculus [5] = experiment: Anticonvulsant activity in albino CF1 mouse assessed as protection against maximal electroshock-induced seizures at 30 mg/kg, ip after 0.5 hrs; type: functional, organism-based; design: dose 30 mg/kg
# Mus musculus [6] = experiment: Anticonvulsant activity against subcutaneous metrazole-induced seizures in ip dosed albino CF1 mouse assessed as minimum effective dose after 0.5 hrs; type: functional; conditions: albino CF1, 0.5 h, read-out: MED
# Mus musculus [7] = experiment: Anticonvulsant activity in albino CF1 mouse assessed as protection against subcutaneous metrazole-induced seizures at 30 mg/kg, ip after 0.5 hrs; type: functional, organism-based; design: dose 30 mg/kg
# Mus musculus [8] = experiment: Neurotoxicity in albino CF1 mouse assessed as minimal motor impairment at 100 mg/kg, ip after 4 hrs by rotarod test; type: toxicity, organism-based; design: dose 100 mg/kg, route intraperitoneal; conditions: in vivo
# Mus musculus [9] = experiment: Anticonvulsant activity in albino CF1 mouse assessed as protection against subcutaneous metrazole-induced seizures at 300 mg/kg, ip after 4 hrs; type: functional, organism-based; design: dose 300 mg/kg
# Mus musculus [10] = experiment: Anticonvulsant activity in albino CF1 mouse assessed as protection against maximal electroshock-induced seizures at 100 mg/kg, ip after 0.5 hrs; type: functional, organism-based; design: dose 100 mg/kg
# Mus musculus [11] = experiment: Anticonvulsant activity against maximal electroshock-induced seizures in ip dosed albino CF1 mouse assessed as minimum effective dose after 4 hrs; type: functional; conditions: read-out: MED
# Mus musculus [12] = experiment: Neurotoxicity in albino CF1 mouse assessed as minimal motor impairment at 30 mg/kg, ip after 0.5 hrs by rotarod test; type: toxicity, organism-based; design: dose 30 mg/kg, route intraperitoneal; conditions: in vivo
# Mus musculus [13] = experiment: Anticonvulsant activity in albino CF1 mouse assessed as protection against subcutaneous metrazole-induced seizures at 100 mg/kg, ip after 4 hrs; type: functional, organism-based; design: dose 100 mg/kg
# Mus musculus [14] = experiment: Anticonvulsant activity in albino CF1 mouse assessed as protection against maximal electroshock-induced seizures at 100 mg/kg, ip after 4 hrs; type: functional, organism-based; design: dose 100 mg/kg
# Mus musculus [15] = experiment: Anticonvulsant activity in albino CF1 mouse assessed as protection against subcutaneous metrazole-induced seizures at 30 mg/kg, ip after 4 hrs; type: functional, organism-based; design: dose 30 mg/kg
# Mus musculus [16] = experiment: Neurotoxicity in albino CF1 mouse assessed as minimal motor impairment at 30 to 300 mg/kg, po after 4 hrs by rotarod test; type: toxicity, organism-based; design: dose 30-300 mg/kg, route oral; conditions: in vivo
# Mus musculus [17] = experiment: Anticonvulsant activity in albino CF1 mouse assessed as protection against subcutaneous metrazole-induced seizures at 300 mg/kg, ip after 0.5 hrs; type: functional, organism-based; design: dose 300 mg/kg
# Mus musculus [18] = experiment: Neurotoxicity in albino CF1 mouse assessed as minimal motor impairment at 30 mg/kg, ip after 4 hrs by rotarod test; type: toxicity, organism-based; design: dose 30 mg/kg, route intraperitoneal; conditions: in vivo
# Mus musculus [19] = experiment: Anticonvulsant activity in albino CF1 mouse assessed as protection against subcutaneous metrazole-induced seizures at 100 mg/kg, ip after 0.5 hrs; type: functional, organism-based; design: dose 100 mg/kg
# Mus musculus [20] = experiment: Neurotoxicity in albino CF1 mouse assessed as minimal motor impairment at 30 to 300 mg/kg, ip after 0.5 hrs by rotarod test; conditions: in vivo
# Mus musculus [21] = experiment: Anticonvulsant activity in albino CF1 mouse assessed as protection against maximal electroshock-induced seizures at 300 mg/kg, ip after 0.5 hrs; type: functional, organism-based; design: dose 300 mg/kg
# Mus musculus [22] = experiment: Neurotoxicity in ip dosed albino CF1 mouse assessed as minimum dose required to cause toxicity after 4 hrs by rotarod test; type: organism-based; conditions: in vivo
# Mus musculus [23] = experiment: Neurotoxicity in albino CF1 mouse assessed as minimal motor impairment at 300 mg/kg, ip after 4 hrs by rotarod test; type: toxicity, organism-based; design: dose 300 mg/kg, route intraperitoneal; conditions: in vivo
# Mus musculus [24] = experiment: Anticonvulsant activity in albino CF1 mouse assessed as protection against maximal electroshock-induced seizures at 300 mg/kg, ip after 4 hrs; type: functional, organism-based; design: dose 300 mg/kg
# Mus musculus [25] = experiment: Neurotoxicity in albino CF1 mouse assessed as minimal motor impairment at 100 mg/kg, ip after 0.5 hrs by rotarod test; type: toxicity, organism-based; design: dose 100 mg/kg, route intraperitoneal; conditions: in vivo
SMILES,minimal effective dose (Mus musculus [1]) [mg/kg],MED (Mus musculus [2]) [mg/kg],minimal effective dose (Mus musculus [3]) [mg/kg],Activity (Mus musculus [4]),Activity (Mus musculus [5]),minimal effective dose (Mus musculus [6]) [mg/kg],Activity (Mus musculus [7]),Activity (Mus musculus [8]),Activity (Mus musculus [9]),minimal effective dose (Mus musculus [11]) [mg/kg],Activity (Mus musculus [12]),Activity (Mus musculus [13]),Activity (Mus musculus [14]),Activity (Mus musculus [15]),Activity (Mus musculus [16]),Activity (Mus musculus [17]),Activity (Mus musculus [18]),Activity (Mus musculus [19]),Activity (Mus musculus [20]),MED (Mus musculus [22]) [mg/kg],also measured
c1ccc(-c2c[nH]c(-c3ccsc3)n2)cc1,> 300,100,100,inactive,inactive,> 300,inactive,Non-toxic,inactive,> 300,Non-toxic,inactive,inactive,inactive,Non-toxic,inactive,Non-toxic,inactive,Non-toxic,> 300,Activity (Mus musculus [10]): Active; Activity (Mus musculus [21]): Active
c1ccc(-c2c[nH]c(C3CCCCC3)n2)cc1,> 300,100,> 300,inactive,inactive,> 300,inactive,Non-toxic,,> 300,Non-toxic,inactive,inactive,inactive,Non-toxic,,Non-toxic,,Non-toxic,> 300,Activity (Mus musculus [10]): inactive; Activity (Mus musculus [23]): Non-toxic; Activity (Mus musculus [24]): inactive
c1ccc(-c2c[nH]c(-c3cc4ccccc4o3)n2)cc1,> 300,> 300,> 300,inactive,inactive,> 300,inactive,Non-toxic,inactive,> 300,Non-toxic,inactive,inactive,inactive,Non-toxic,inactive,Non-toxic,inactive,Non-toxic,> 300,Activity (Mus musculus [10]): inactive; Activity (Mus musculus [21]): inactive; Activity (Mus musculus [24]): inactive
FC(F)(F)c1ccc(-c2c[nH]c(-c3ccccc3)n2)cc1,100,100,100,inactive,inactive,> 300,inactive,Non-toxic,Active,> 300,Non-toxic,inactive,inactive,inactive,Non-toxic,inactive,Non-toxic,inactive,Non-toxic,100,Activity (Mus musculus [23]): Toxic; Activity (Mus musculus [21]): Active
Clc1cccc(-c2nc(-c3ccccc3)c[nH]2)c1,> 300,100,100,inactive,inactive,100,inactive,Non-toxic,inactive,100,Non-toxic,inactive,inactive,inactive,Non-toxic,Active,Non-toxic,inactive,Non-toxic,> 300,Activity (Mus musculus [23]): Non-toxic; Activity (Mus musculus [21]): Active; Activity (Mus musculus [25]): Non-toxic; Activity (Mus musculus [24]): Active
